Test results reported in US5817324A, “Use of arylpyrroles for the control of resistant insect populations” (American Cyanamid Company, priority 1997, dated 1998).

Key:
Type in all cases: in vivo
[1] = tested on: Resistant strain of horn flies (Haematobia irritans); assay: treated filterpaper-tarsal contact 24 hour bioassay, resistant horn flies, with resistance factor (Example 2); details: Table II; for Resistant LC50: resistant horn flies
Method: (§1) In this bioassay, highly pyrethroid-resistant wild flies and flies of a pyrethroid-susceptible lab strain are used. All flies are held in plastic petri dishes and exposed to sequential rates of test compound residue on filter paper^1. A 1.25 inch hole is cut in the bottom half of the 100 mL petri dish and covered with fiberglass window screen. The bottom is used as the top in this bioassay, in order that the flies may be blood fed through the screened opening with a muslin pad saturated with citrated cattle blood.
(§2) The experiments are conducted in triplicate to determine 24 hour LC50 data for the test compound and cypermethrin on susceptible and pyrethroid-resistant horn flies. The experiments are conducted on site so that freshly captured pyrethroid-resistant horn flies can be used. On the exemplified site, very high levels of pyrethroid resistance had been selected through several years of pyrethroid cattle ear tag use^2. Wild pyrethroid-resistant horn flies are tested within 1 hour of capture to minimize check mortality. The resistance factor (RF) is determined by the following equation:
(§3) RF=Resistant LC50 .div.Susceptible LC50
(§4) The LC50 is the concentration in μlg/cm^2 of test com-pound required to kill 50% of the fly population tested. The LC50 values are determined from the mortality data using standard log probit analysis techniques^3, and are within 95% confidence limits^1. The data obtained is shown in Table I. The references listed below are incorporated herein by reference thereto.
(§5) Evaluation Of Test Compounds vs. Permethrin On Susceptible And Resistant Strains Of Horn Flies (Haematobia irritans)
(§6) Using essentially the standard treated filterpaper-tarsal contact 24 hour bioassay described in Example 1, the following test compounds and pyrethroid insecticide are evaluated: […]

[2] = tested on: Susceptible strain of horn flies (Haematobia irritans); assay: treated filterpaper-tarsal contact 24 hour bioassay, susceptible horn flies (Example 2); details: Table II
Method: as §1
as §2, with “equation: […]” for “equation:”
as §4, §5, §6

[3] = tested on: pyrethroid-susceptible lab strain horn flies (Haematobia irritans); assay: 24 hour treated filter paper bioassay, pyrethroid-susceptible horn flies (Example 1)
Method: (§7) Evaluation Of The Effect Of Test Compounds vs. Cypermethrin On Susceptible And Resistant Strains Of Horn Flies (Haematobia irritans).
as §1
as §2, with “equation: […]” for “equation:”
as §4

[4] = tested on: pyrethroid-resistant wild horn flies (Haematobia irritans); assay: 24 hour treated filter paper bioassay, pyrethroid-resistant horn flies, with resistance factor (Example 1)
Method: as §7, §1, §2, §3, §4

[5] = tested on: pyrethroid-resistant Rowena strain sheep body lice; assay: treated cotton square contact bioassay, pyrethroid-resistant sheep body lice, with resistance factor (Example 3); details: 16 hours
Method: (§8) Evaluation Of Test Compound Activity Against Susceptible And Resistant Sheep Body Lice
(§9) In this evaluation, test compounds are dissolved in acetone and diluted in a gradient series. One mL aliquots of the acetone dilutions are pipetted onto 6 cm cotton squares. The treated squares are dried and put into 9 cm petri dishes. Adult lice from the pyrethroid-susceptible Peak Hill strain and the pyrethroid-resitant Rowena strain are collected by suction from sheep, transferred onto each treated square and confined using a stainless steel ring (50 mm diameter×20 mm). After 16 hours, the lice are scored as dead, moribund or alive. In this bioassay, the test compound killed, rather than knocked-down lice. Each treatment is replicated. Standard log probit analysis techniques are used to determine the LC50 and LC99 values from the mortality data, and are within 95% confidence limits. The LC50 values are then used to determine the resistance factor (RF) as shown below.
as §3
(§10) The LC50 is the concentration in mg/L of test compound required to kill 50% of the lice population tested. The LC99 is the concentration in mg/L of test compound required to kill 99% of the lice population tested.

[6] = tested on: pyrethroid-susceptible Peak Hill strain sheep body lice; assay: treated cotton square contact bioassay, pyrethroid-susceptible sheep body lice (Example 3); details: 16 hours
Method: as §8, §9, §10

[7] = Experiment 1, pyrethroid-resistant horn flies
[8] = Experiment 2, pyrethroid-resistant horn flies
[9] = Experiment 3, pyrethroid-resistant horn flies

## N#Cc1c(-c2ccc(Cl)cc2)[nH]c(C(F)(F)F)c1Br [Compound C, 4-Bromo-2-(p-chlorophenyl)-5-(trifluoromethyl)pyrrole-3-carbonitrile]
[1]
  RF (resistance factor; Resistant LC50 ÷ Susceptible LC50): 0.088
  Resistant LC50: 1.877 μg/cm^2
[2]
  Susceptible LC50: 21.237 μg/cm^2

## CCOCn1c(-c2ccc(Cl)cc2)c(C#N)c(Cl)c1C(F)(F)F [Compound D, 4-Chloro-2-(p-chlorophenyl)-1-(ethoxymethyl)-5-(trifluoromethyl)pyrrole-3-carbonitrile]
[1]
  RF (resistance factor; Resistant LC50 ÷ Susceptible LC50): 0.123
  Resistant LC50: 1.066 μg/cm^2
[2]
  Susceptible LC50: 8.692 μg/cm^2

## CC1(C)C(C=C(Cl)Cl)C1C(=O)OC(C#N)c1cccc(Oc2ccccc2)c1 (centres unmarked) [Compound B, Cypermethrin, reference compound]
[3]; Experiment 1
  Susceptible LC50: 0.122 μg/cm^2
[3]; Experiment 2
  Susceptible LC50: 0.057 μg/cm^2
[3]; Experiment 3
  Susceptible LC50: 0.013 μg/cm^2
[4]; Experiment 1
  RF (resistance factor; Resistant LC50 ÷ Susceptible LC50): 640
[4]; [7]
  Resistant LC50: 79.02 μg/cm^2
[4]; Experiment 2
  RF (resistance factor; Resistant LC50 ÷ Susceptible LC50): 1144
[4]; [8]
  Resistant LC50: 65.20 μg/cm^2
[4]; Experiment 3
  RF (resistance factor; Resistant LC50 ÷ Susceptible LC50): 3636
[4]; [9]
  Resistant LC50: 47.27 μg/cm^2

## CC1(C)C(C=C(Cl)Cl)C1C(=O)OCc1cccc(Oc2ccccc2)c1 (centres unmarked) [Compound E, Permethrin, reference compound]
[1]
  RF (resistance factor; Resistant LC50 ÷ Susceptible LC50): 80.0
  Resistant LC50: 8.16 μg/cm^2
[2]
  Susceptible LC50: 0.102 μg/cm^2

## CCOCn1c(-c2ccc(Cl)cc2)c(C#N)c(Br)c1C(F)(F)F [Compound A, 4-bromo-2-(p-chlorophenyl)-1-(ethoxymethyl)-5-(trifluoromethyl)pyrrole-3-carbonitrile]
[5]; Rowena strain
  Resistant LC50: 5.85 mg/L
[5]; Rowena strain, read-out: Resistant LC99
  EC99: 24.5 µg/mL
[5]; sheep body lice
  RF (resistance factor; Resistant LC50 ÷ Susceptible LC50): 0.7048
[1]
  RF (resistance factor; Resistant LC50 ÷ Susceptible LC50): 0.23
  Resistant LC50: 0.391 μg/cm^2
[6]
  Susceptible LC50: 8.30 mg/L
[6]; read-out: Susceptible LC99
  EC99: 52.8 µg/mL
[3]; Experiment 1
  Susceptible LC50: 1.2 μg/cm^2
[3]; Experiment 2
  Susceptible LC50: 2.15 μg/cm^2
[3]; Experiment 3
  Susceptible LC50: 1.25 μg/cm^2
[2]
  Susceptible LC50: 1.691 μg/cm^2
[4]; Experiment 1
  RF (resistance factor; Resistant LC50 ÷ Susceptible LC50): 0.30
[4]; [7]
  Resistant LC50: 0.356 μg/cm^2
[4]; Experiment 2
  RF (resistance factor; Resistant LC50 ÷ Susceptible LC50): 0.14
[4]; [8]
  Resistant LC50: 0.294 μg/cm^2
[4]; Experiment 3
  RF (resistance factor; Resistant LC50 ÷ Susceptible LC50): 0.23
[4]; [9]
  Resistant LC50: 0.287 μg/cm^2
